Here are results for one molecule from patent US8586568B2, “Methods and products for treatment of diseases” (Ampio Pharmaceuticals, Inc., priority 2005, dated 2013).

Like-named read-outs stand apart in the source and are kept apart here.

Format in all cases: cell-based, Human
Assay [1] has as its system HUVEC cells. As to the kind of experiment: Danazol effect on HUVEC cell proliferation (Celltiter 96 AQueous One). Conditions: for OD: OD±standard deviation. Here is the method: Primary HUVEC and EGM-2 growth medium were obtained from Cambrex (Walkersville, Md.). The cells were passaged in medium supplemented with 2% fetal calf serum (FCS) in tissue culture flasks at 37° C. and 5% CO2. Subculturing was performed using trypsin when 60-80% confluence was obtained as specified by the supplier.
Cryopreserved ampoules of passage 2 HUVEC cells were thawed and plated in 96 well tissue culture plates at 5,000 cells/cm^2. A 50 mM stock solution of danazol was prepared in ethanol and the FCS in the medium was increased to 5% to keep danazol in solution. The cells were treated with medium containing final concentrations of danazol ranging from 0.1 to 100 μM in triplicates. 24, 48, and 72 hour incubations were performed and cell proliferation was determined utilizing Celltiter 96 AQueous One Solution Cell Proliferation assay from Promega (Madison, Wis.). In short, medium was aspirated from each well and the cells were washed with 200 μl […] buffered saline (HBSS) from Cambrex warmed to 37° C. 100 μl diluted celltiter solution (15 μl stock+85 μl EGM-2 containing 0.1% FCS) were added to each well and incubated for an additional 4 hours. Optical density was determined by microplate reader using a 530 nm filter after blank subtraction and data presented as OD±standard deviation. The final concentration of ethanol in the wells was less then 0.2% and had no effect on cell proliferation or viability.
All data are presented as representative experiment done in triplicate. Differences between subsets were analyzed using student t-test in Microsoft Excel. P<0.05 was considered statistically significant.

The subject of assay [2] is HUVEC cells. As to the kind of experiment: Danazol Endothelial Cell Tube Formation Assay on matrigel plugs. The note with it: 5% FCS, 18 hours. Here is the method: To investigate the formation of capillary-like structures by HUVEC cells, the Angiogenesis System Endothelial Cell Tube Formation Assay was purchased from BD Biosciences (San Jose, Calif.) and used according to the manufacturers protocol. In brief, 100,000 HUVEC cells were seeded onto rehydrated matrigel plugs in 96 well tissue culture plates in the presence of 5% FCS to induce tube formation. […] After 18 hours the wells were photographed using a Kodak DCS Pro SLR/N digital camera (Rochester, N.Y.) mounted on an inverted microscope. Ethanol treated wells were included to determine if the vehicle had any effects on cell differentiation.

Assay [3] concerns HUVEC cells. The assay can be described thus: Danazol BioCoat Matrigel Invasion Chamber. Conditions: 5% FCS in bottom chamber, 24 hours. Here is the method: BioCoat Matrigel Invasion Chambers were purchased from BD Biosciences (San Jose, Calif.). Inserts were rehydrated at 37° C. with 500 μl HBSS for 2 hours prior to use in humidified incubator. Trypsinized HUVEC cells were washed twice with warm EGM-2 containing 0.1% FCS and added to the upper chamber of the invasion insert at 100,000 cells in a total volume of 250 μl. Danazol and control compounds were added to the upper reservoir at final concentrations of 10 μM and 100 μM. 750 μl EGM-2 supplemented with 5% FCS was added to the bottom chamber to initiate invasion and the plates were incubated for 24 hours. Non-invasive cells were removed from the upper chamber with moistened cotton swabs and then the inserts were washed twice with HBSS. The inserts were then submerged in 10 μM calcein AM prepared in HBSS and incubated for 4 hours. Fluorescence was determined in a microplate reader at 485 nm excitation and 595 nm emission.
All data is presented as representative experiment done in triplicate. Differences between subsets were analyzed using student t-test in Microsoft Excel. P<0.05 was considered statistically significant.

[4] abbreviates: Homo sapiens, HUVEC, 24 h, read-out: percent inhibition of proliferation.
Where [5] appears, read: Homo sapiens, HUVEC, 48 h, read-out: percent inhibition of proliferation.
Setting [6] is: Homo sapiens, HUVEC, 72 h, read-out: percent inhibition of proliferation.

Turning to `C#C[C@]1(O)CC[C@H]2[C@@H]3CCC4=Cc5oncc5C[C@]4(C)[C@H]3CC[C@@]21C` [danazol, 17α-pregna-2,4-dien-20-yno[2,3-d]-isoxazol-17β-ol], the OD in assay [1] (0.1 μM, 72 hours) turned out to be 0.798±0.037; in assay [1] (1 μM, 48 hours), 0.378±0.037; in assay [1] (1 μM, 72 hours), 0.484±0.022; in assay [1] (10 μM, 24 hours), 0.288±0.037; in assay [1] (10 μM, 48 hours) it was 0.241±0.012; in assay [1] (10 μM, 72 hours) it was 0.229±0.016. Moreover, the OD is given as 0.162±0.017 in assay [1] (100 μM, 24 hours); 0.19±0.033 in assay [1] (100 μM, 48 hours); 0.156±0.018 in assay [1] (100 μM, 72 hours). In addition, in assay [1] (100 μM, all time points), the “effect on cell proliferation” value was “complete arrest of cell proliferation”. For the same molecule, in assay [1] (48 hours), the “concentration at which inhibition was significant” value is listed as “approximately 1 μM”. Besides, the inhibition at 10 µM came to 30% in assay [1] (setting [4]), 61% in assay [1] (setting [5]) and 80% in assay [1] (setting [6]). Besides, the inhibition at 100 µM in assay [1] (setting [4]) amounted to 65%; in assay [1] (setting [5]), 70%; in assay [1] (setting [6]), 86%. The inhibition at 1 µM in assay [1] (setting [5]) turned out to be 40%; in assay [1] (setting [6]) it was 57%. Besides, in assay [1] (setting [6]), the inhibition at 0.1 µM worked out at 28%. Also, the “tube formation” value in assay [2] (50 μM) is “isolated colonies of HUVEC located in the plug with very few, thin connections or vessel lumen spaces”; in assay [2] (danazol 1-50 μM), “fewer organized structures with thin and less defined interconnections than controls”. For the same molecule, the “effect on cell invasion” value in assay [3] (10 μM) and in assay [3] (100 μM) was “had no effect” each time.
